Data reported in ChEMBL document CHEMBL1201862, “PubChem BioAssay data set” (2004).
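Grown in 96-well plates, cells were treated for 48 hours with each compound at five concentrations. Insufficient inhibition: endpoint recorded as highest concentration tested. GI50 marks 50% less growth.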 Activity calls are given as the source filed them. No stated cut-off is given here; in the data, active = GI50 up to about 1.1 µM and inactive = higher.

How the values were obtained:
Test in all cases: DTP human tumour cell line panel, 48 h
SK-MEL-28 = test system: SK-MEL-28
CCRF-CEM = test system: CCRF-CEM
OVCAR-8 = test system: OVCAR-8
CAKI-1 = test system: CAKI-1
M14 = test system: M14
ACHN = test system: ACHN
OVCAR-4 = test system: OVCAR-4
MDA-N = test system: MDA-N
MOLT-4 = test system: MOLT-4
LOX IMVI = test system: LOX IMVI
DU-145 = test system: DU-145
T47D = test system: T47D
MDA-MB-231 = test system: MDA-MB-231
SNB-75 = test system: SNB-75
MDA-MB-435 = test system: MDA-MB-435
OVCAR-3 = test system: OVCAR-3
Malme-3M = test system: Malme-3M
UACC-62 = test system: UACC-62
RPMI-8226 = test system: RPMI-8226
IGROV-1 = test system: IGROV-1
SK-MEL-2 = test system: SK-MEL-2
NCI-H522 = test system: NCI-H522
UO-31 = test system: UO-31
SK-OV-3 = test system: SK-OV-3
786-0 = test system: 786-0
SW-620 = test system: SW-620
OVCAR-5 = test system: OVCAR-5
KM12 = test system: KM12
SF-295 = test system: SF-295
PC-3 = test system: PC-3
NCI-H460 = test system: NCI-H460
BT-549 = test system: BT-549
HCT-15 = test system: HCT-15
HOP-92 = test system: HOP-92
SF-268 = test system: SF-268
U-251 = test system: U-251
COLO 205 = test system: COLO 205
SR = test system: SR
SN12C = test system: SN12C
SF-539 = test system: SF-539
A498 = test system: A498
EKVX = test system: EKVX
HOP-62 = test system: HOP-62
HT-29 = test system: HT-29
UACC-257 = test system: UACC-257
NCI-H23 = test system: NCI-H23
SK-MEL-5 = test system: SK-MEL-5
TK-10 = test system: TK-10
K562 = test system: K562
A549 = test system: A549
Hs-578T = test system: Hs-578T
SNB-19 = test system: SNB-19
HL-60 = test system: HL-60
RXF 393 = test system: RXF 393
HCT-116 = test system: HCT-116
NCI-H226 = test system: NCI-H226
MCF7 = test system: MCF7
HCC 2998 = test system: HCC 2998
NCI/ADR-RES = test system: NCI/ADR-RES

Cc1c2cnccc2nc2[nH]c3ccncc3c12
GI50 (SK-MEL-28): 32.4 µM (inactive) | GI50 (CCRF-CEM): 5.75 µM (inactive) | GI50 (OVCAR-8): 6.98 µM (inactive) | GI50 (CAKI-1): 2.98 µM (inactive) | GI50 (M14): 4.5 µM (inactive) | GI50 (ACHN): 1.59 µM (inactive) | GI50 (OVCAR-4): 11.7 µM (inactive) | GI50 (MDA-N): 10.6 µM (inactive) | GI50 (MOLT-4): 6.31 µM (inactive) | GI50 (LOX IMVI): 2.29 µM (inactive) | GI50 (DU-145): 10.7 µM (inactive) | GI50 (T47D): 12.4 µM (inactive) | GI50 (MDA-MB-231): 55 µM (inactive) | GI50 (SNB-75): > 100 µM (inactive) | GI50 (MDA-MB-435): 6.46 µM (inactive) | GI50 (OVCAR-3): 10.4 µM (inactive) | GI50 (Malme-3M): 3.33 µM (inactive) | GI50 (UACC-62): 7 µM (inactive) | GI50 (RPMI-8226): 2.24 µM (inactive) | GI50 (IGROV-1): 2.85 µM (inactive) | GI50 (SK-MEL-2): 11.4 µM (inactive) | GI50 (NCI-H522): 3.91 µM (inactive) | GI50 (UO-31): 4.08 µM (inactive) | GI50 (SK-OV-3): 21.5 µM (inactive) | GI50 (786-0): 3.24 µM (inactive) | GI50 (SW-620): 3.93 µM (inactive) | GI50 (OVCAR-5): 5.62 µM (inactive) | GI50 (KM12): 6.79 µM (inactive) | GI50 (SF-295): 6.84 µM (inactive) | GI50 (PC-3): 4.56 µM (inactive) | GI50 (NCI-H460): 2.16 µM (inactive) | GI50 (BT-549): 6.92 µM (inactive) | GI50 (HCT-15): 3.98 µM | GI50 (HOP-92): 3.78 µM (inactive) | GI50 (SF-268): 2.47 µM (inactive) | GI50 (U-251): 4.68 µM (inactive) | GI50 (COLO 205): 8.49 µM (inactive) | GI50 (SR): 2.79 µM (inactive) | GI50 (SN12C): 3.33 µM (inactive) | GI50 (SF-539): 6.73 µM (inactive) | GI50 (A498): 5.47 µM (inactive) | GI50 (EKVX): 16 µM (inactive) | GI50 (HOP-62): 2.17 µM (inactive) | GI50 (HT-29): 5.6 µM (inactive) | GI50 (UACC-257): 20.1 µM (inactive) | GI50 (NCI-H23): 1.44 µM (inactive) | GI50 (SK-MEL-5): 5.69 µM (inactive) | GI50 (TK-10): 3.95 µM (inactive) | GI50 (K562): 10.8 µM (inactive) | GI50 (A549): 2.94 µM (inactive) | GI50 (Hs-578T): 16.6 µM (inactive) | GI50 (SNB-19): 13.7 µM (inactive) | GI50 (HL-60): 19.9 µM (inactive)

O=c1[nH]nc(Cc2ccccc2)n1/N=C/c1cccs1
GI50 (SK-MEL-28): > 100 µM (inactive) | GI50 (CCRF-CEM): > 100 µM (inactive) | GI50 (OVCAR-8): > 100 µM (inactive) | GI50 (CAKI-1): > 100 µM (inactive) | GI50 (M14): > 100 µM (inactive) | GI50 (ACHN): > 100 µM (inactive) | GI50 (OVCAR-4): > 100 µM (inactive) | GI50 (MDA-N): > 100 µM (inactive) | GI50 (MOLT-4): 80.7 µM (inactive) | GI50 (LOX IMVI): > 100 µM (inactive) | GI50 (DU-145): > 100 µM (inactive) | GI50 (T47D): > 100 µM (inactive) | GI50 (MDA-MB-231): 23.4 µM (inactive) | GI50 (SNB-75): > 100 µM (inactive) | GI50 (MDA-MB-435): > 100 µM (inactive) | GI50 (OVCAR-3): > 100 µM (inactive) | GI50 (Malme-3M): > 100 µM (inactive) | GI50 (UACC-62): 36 µM (inactive) | GI50 (RPMI-8226): 47.1 µM (inactive) | GI50 (RXF 393): 35.2 µM (inactive) | GI50 (HCT-116): > 100 µM (inactive) | GI50 (SK-MEL-2): > 100 µM (inactive) | GI50 (UO-31): > 100 µM (inactive) | GI50 (SK-OV-3): > 100 µM (inactive) | GI50 (786-0): > 100 µM (inactive) | GI50 (SW-620): > 100 µM (inactive) | GI50 (OVCAR-5): > 100 µM (inactive) | GI50 (KM12): > 100 µM (inactive) | GI50 (SF-295): > 100 µM (inactive) | GI50 (PC-3): > 100 µM (inactive) | GI50 (NCI-H226): > 100 µM (inactive) | GI50 (NCI-H460): > 100 µM (inactive) | GI50 (BT-549): > 100 µM (inactive) | GI50 (HCT-15): > 100 µM | GI50 (SF-268): > 100 µM (inactive) | GI50 (U-251): 48 µM (inactive) | GI50 (COLO 205): > 100 µM (inactive) | GI50 (SN12C): > 100 µM (inactive) | GI50 (SF-539): > 100 µM (inactive) | GI50 (A498): 16 µM (inactive) | GI50 (EKVX): > 100 µM (inactive) | GI50 (HOP-62): > 100 µM (inactive) | GI50 (HT-29): > 100 µM (inactive) | GI50 (MCF7): > 100 µM (inactive) | GI50 (HCC 2998): > 100 µM (inactive) | GI50 (UACC-257): > 100 µM (inactive) | GI50 (NCI-H23): > 100 µM (inactive) | GI50 (NCI/ADR-RES): > 100 µM (inactive) | GI50 (K562): > 100 µM (inactive) | GI50 (A549): > 100 µM (inactive) | GI50 (Hs-578T): > 100 µM (inactive) | GI50 (SNB-19): > 100 µM (inactive)
